The target in test [1] is T1, 5-HT1A receptor (Cavia porcellus, UniProt A0A286Y074).
T1 construct: guinea-pig ileum in vitro; from tissue; host or cells: guinea-pig ileum, isolated tissue
T1 sequence (A0A286Y074 1-421): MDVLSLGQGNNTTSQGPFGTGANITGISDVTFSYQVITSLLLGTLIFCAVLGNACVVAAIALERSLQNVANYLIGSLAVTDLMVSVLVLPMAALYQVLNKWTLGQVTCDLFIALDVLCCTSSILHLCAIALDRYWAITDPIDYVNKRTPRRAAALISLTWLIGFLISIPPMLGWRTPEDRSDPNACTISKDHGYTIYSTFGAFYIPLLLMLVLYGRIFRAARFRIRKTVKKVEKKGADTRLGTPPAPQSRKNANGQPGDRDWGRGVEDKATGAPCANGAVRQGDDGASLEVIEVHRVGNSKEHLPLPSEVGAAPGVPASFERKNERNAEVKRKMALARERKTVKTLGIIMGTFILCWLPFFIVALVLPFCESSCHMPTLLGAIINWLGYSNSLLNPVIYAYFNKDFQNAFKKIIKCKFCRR
The experiment in a line: 5-HT1A receptor antagonism: antagonism of 5-carboxamido-tryptamine in the guinea-pig ileum in vitro. Particulars: read-out: pA2, antagonism of 5-carboxamido-tryptamine (converted). As for the experimental part:
The compounds are tested for 5-HT1A receptor antagonism activity in a test involving the antagonism of 5-carboxamido-tryptamine in the guinea-pig ileum in vitro (based upon the procedure of Fozard et al, Br. J. Pharmac., 1985, 86, 601P).

For test [2], the target named is T2, 5-HT1A receptor (Rattus norvegicus, UniProt P19327).
T2 construct: rat hippocampal membrane homogenated; from tissue; host or cells: rat hippocampus, membrane homogenate
T2 sequence (P19327 1-422): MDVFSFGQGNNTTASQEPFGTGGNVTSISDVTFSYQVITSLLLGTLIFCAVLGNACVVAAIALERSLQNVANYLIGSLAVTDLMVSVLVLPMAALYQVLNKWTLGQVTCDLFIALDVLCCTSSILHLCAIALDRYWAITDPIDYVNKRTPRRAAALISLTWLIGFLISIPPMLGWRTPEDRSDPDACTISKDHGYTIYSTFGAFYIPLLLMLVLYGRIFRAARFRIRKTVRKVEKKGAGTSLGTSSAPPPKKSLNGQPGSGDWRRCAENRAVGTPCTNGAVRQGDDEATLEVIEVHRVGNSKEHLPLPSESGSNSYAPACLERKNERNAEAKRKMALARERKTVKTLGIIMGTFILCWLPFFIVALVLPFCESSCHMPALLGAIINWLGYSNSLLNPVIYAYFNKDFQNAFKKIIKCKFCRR
The experiment in a line: 5-HT1A receptor binding activity in rat hippocampal membrane homogenate. The protocol:
The compounds of the invention are tested for 5-HT1A receptor binding activity in rat hippocampal membrane homogenated by the method of B. S. Alexander and M. D. Wood, J Pharm Pharmacol, 1988, 40, 888-891.

Structures are written as SMILES.

These results are taken from patent US5710149A, “Piperazine derivatives as 5-ht antagonists” (John Wyeth & Brother, Ltd., priority 1991, dated 1998).

Usually IC50 stands for the point on the concentration scale where inhibition reaches its midpoint. A higher IC50 goes with weaker potency in that assay.

Regarding `O=C(C(CCN1CCN(c2cccc3c2OCCO3)CC1)c1ccccc1)N1CCCCCC1` (centres unmarked) [Example 8, 2,3,4,5,6,7-Hexahydro-1-{4-[1-[4-(2,3-dihydro-1,4-benzodioxin-5-yl)piperazinyl]]-2-phenylbutyryl}-1H-azepine], in test [1], the Kb is 0.398 nM. Moreover, the IC50 in test [2] was found to be 0.6 nM.
